Test results: ChEMBL document CHEMBL4359853, “Antiproliferative activity of (R)-4'-methylklavuzon on hepatocellular carcinoma cells and EpCAM+/CD133+ cancer stem cells via SIRT1 and Exportin-1 (CRM1) inhibition” (Eur J Med Chem, 2019)
pIC50: −log10 of the molar value. Active and inactive are the calls of the source. The calls are words filed in the database; no cut-off is given here.

What was measured:
[1] = system: Huh-7; test: Induction of apoptosis in human HuH7 cells expressing positive EpCAM/CD133 assessed as change in cell morphology at 0.1 to 10 uM measured after 48 hrs by 2D microscopic analysis; type: functional, cell-based
[2] = species: Homo sapiens; test: Inhibition of Sirtuin/HDAC in human HuH7 cells expressing positive EpCAM/CD133 assessed as decrease in enzymatic activity at 0.10 to 5 uM measured after 24 hrs relative to control; type: cell-based
[3] = system: Huh-7; test: Induction of apoptosis in human HuH7 positive EpCAM/CD133 cells measured after 48 hrs by Annexin V-FITC/propidium iodide staining based flow cytometry analysis; type: functional, cell-based
[4] = species: Homo sapiens; test: Inhibition of class 1/2 HDAC in human HuH7 EpCAM/CD133 positive cells nuclear extract at 0.1 to 81 uM after 24 hrs by fluorescence based assay
[5] = system: Huh-7; test: Cytotoxicity against human HuH7 cells assessed as reduction in cell viability measured after 24 hrs by MTT assay; type: functional, cell-based; settings: Huh-7, 24 h
[6] = system: Huh-7; test: Upregulation of p21 expression in human HuH7 cells expressing positive EpCAM/CD133 at 1 to 3 uM measured after 72 hrs by SYBR-green based qPCR analysis; type: functional, cell-based
[7] = species: Homo sapiens; test: Inhibition of Sirtuin/HDAC in human HuH7 cells expressing positive EpCAM/CD133 assessed as decrease in cell viability measured after 24 hrs; type: cell-based
[8] = system: Huh-7; test: Induction of apoptosis in human HuH7 cells assessed as increase in early apoptotic cells at 10 uM measured after 48 hrs by Annexin V-FITC/propidium iodide staining based flow cytometry analysis; type: functional, cell-based
[9] = system: HepG2; test: Induction of apoptosis in human 3D HepG2 spheroids at 10 uM measured after 24 hrs by propidium iodide staining based immunofluorescence microscopy analysis; type: functional, cell-based
[10] = system: HepG2; test: Induction of 3D spheroid death in human HepG2 cells assessed as upregulation of p53 measured after 24 hrs by DAPI staining based fluorescence microscopy analysis assay; type: functional, cell-based
[11] = system: Huh-7; test: Cytotoxicity against human HuH7 cells assessed as effect on SIRT1 protein level at 5 uM measured after 24 hrs by ELISA; type: functional, cell-based
[12] = biological target: Exportin-1 (Homo sapiens) (UniProt O14980); test: Inhibition of CRM1 in human HepG2 cells assessed as accumulation of RIOK2 in nucleus at 0.1 to 10 uM measured after 6 hrs by DAPI staining based confocal microscopy analysis; type: cell-based
Exportin-1 (Homo sapiens), sequence (O14980 whole entry): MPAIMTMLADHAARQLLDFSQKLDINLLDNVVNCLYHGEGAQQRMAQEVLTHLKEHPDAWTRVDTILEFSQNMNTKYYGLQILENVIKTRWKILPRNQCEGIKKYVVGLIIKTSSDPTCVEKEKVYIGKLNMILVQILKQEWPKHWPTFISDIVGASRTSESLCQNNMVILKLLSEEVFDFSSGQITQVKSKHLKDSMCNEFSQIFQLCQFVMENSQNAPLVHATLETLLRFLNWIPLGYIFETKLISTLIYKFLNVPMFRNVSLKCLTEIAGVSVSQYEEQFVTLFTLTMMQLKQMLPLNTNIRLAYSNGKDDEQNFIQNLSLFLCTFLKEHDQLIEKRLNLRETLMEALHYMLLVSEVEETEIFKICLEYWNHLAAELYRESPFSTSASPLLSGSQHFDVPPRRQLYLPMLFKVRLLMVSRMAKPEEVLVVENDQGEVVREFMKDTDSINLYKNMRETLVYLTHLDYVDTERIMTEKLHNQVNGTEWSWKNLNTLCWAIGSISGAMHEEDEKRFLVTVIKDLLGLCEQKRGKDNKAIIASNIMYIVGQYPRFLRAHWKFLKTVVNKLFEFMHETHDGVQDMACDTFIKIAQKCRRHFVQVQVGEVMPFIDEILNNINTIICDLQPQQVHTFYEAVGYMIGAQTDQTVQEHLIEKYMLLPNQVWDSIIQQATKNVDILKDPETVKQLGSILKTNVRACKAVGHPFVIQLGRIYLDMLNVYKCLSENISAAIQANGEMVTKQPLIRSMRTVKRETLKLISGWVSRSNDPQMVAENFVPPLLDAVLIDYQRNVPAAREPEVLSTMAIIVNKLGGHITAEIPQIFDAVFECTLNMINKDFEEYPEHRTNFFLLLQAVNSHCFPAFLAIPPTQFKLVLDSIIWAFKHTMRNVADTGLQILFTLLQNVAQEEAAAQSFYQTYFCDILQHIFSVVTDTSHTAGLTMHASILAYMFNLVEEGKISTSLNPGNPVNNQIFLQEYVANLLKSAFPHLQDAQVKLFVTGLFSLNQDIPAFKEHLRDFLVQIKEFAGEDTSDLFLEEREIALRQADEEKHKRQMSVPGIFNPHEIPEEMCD

[13] = biological target: Histone-lysine N-methyltransferase EZH2 (Homo sapiens) (UniProt Q15910); test: Activation of EZH2 in human HuH7 cells expressing positive EpCAM/CD133 assessed as upregulation of H3K27me3 expression measured after 4 hrs by Western blot analysis; type: cell-based
Histone-lysine N-methyltransferase EZH2 (Homo sapiens), sequence (Q15910 whole entry, looked up): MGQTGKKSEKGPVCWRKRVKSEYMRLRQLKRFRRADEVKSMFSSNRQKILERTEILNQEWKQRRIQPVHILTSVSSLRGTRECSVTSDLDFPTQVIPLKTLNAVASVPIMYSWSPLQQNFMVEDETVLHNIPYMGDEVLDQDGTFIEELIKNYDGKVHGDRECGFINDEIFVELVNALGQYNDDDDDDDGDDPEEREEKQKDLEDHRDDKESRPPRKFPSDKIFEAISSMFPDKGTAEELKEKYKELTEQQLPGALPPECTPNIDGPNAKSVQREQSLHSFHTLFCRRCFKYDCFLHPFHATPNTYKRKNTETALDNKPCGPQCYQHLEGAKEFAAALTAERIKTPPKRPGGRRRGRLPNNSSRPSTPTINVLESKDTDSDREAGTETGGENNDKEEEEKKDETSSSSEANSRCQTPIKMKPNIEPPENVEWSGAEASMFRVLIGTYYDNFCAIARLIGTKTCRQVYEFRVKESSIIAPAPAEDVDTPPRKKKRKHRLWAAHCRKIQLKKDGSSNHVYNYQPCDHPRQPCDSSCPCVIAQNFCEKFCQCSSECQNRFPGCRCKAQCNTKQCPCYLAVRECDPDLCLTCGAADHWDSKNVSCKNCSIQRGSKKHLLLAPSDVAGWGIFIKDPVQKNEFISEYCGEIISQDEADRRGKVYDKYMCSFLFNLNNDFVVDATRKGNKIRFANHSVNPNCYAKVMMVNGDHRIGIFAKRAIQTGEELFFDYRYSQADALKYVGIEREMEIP

[14] = system: Huh-7; test: Cytotoxicity against human HuH7 cells expressing positive EpCAM/CD133 assessed as reduction in cell viability measured after 24 hrs by MTT assay; type: functional, cell-based; settings: Huh-7, 24 h
[15] = system: Huh-7; test: Upregulation of SIRT1 in human HuH7 cells measured after 24 hrs by ELISA; type: functional, cell-based
[16] = biological target: Exportin-1 (Homo sapiens) (UniProt O14980); test: Inhibition of CRM1 in human HuH7 cells assessed as accumulation of RIOK2 in nucleus at 1 and 10 uM measured after 24 hrs by DAPI staining based confocal microscopy analysis; type: cell-based
[17] = system: Huh-7; test: Cell cycle arrest in human HuH7 negative EpCAM/CD133 cells assessed as increase in accumulation at G1 phase at 10 uM measured after 48 hrs by propidium iodide staining based flow cytometry analysis; type: functional
[18] = biological target: Exportin-1 (Homo sapiens) (UniProt O14980); test: Inhibition of CRM1 in human HuH7 cells assessed as upregulation of p53 by measuring accumulation in nucleus at 0.1 to 10 uM measured after 24 to 48 hrs by DAPI staining based immunofluorescence microscopy analysis; type: cell-based
[19] = biological target: Exportin-1 (Homo sapiens) (UniProt O14980); test: Inhibition of CRM1 in human HepG2 cells assessed as accumulation of RIOK2 in nucleus at 1 and 10 uM measured after 24 hrs by DAPI staining based confocal microscopy analysis; type: cell-based
[20] = system: Huh-7; test: Upregulation of p21 expression in human HuH7 cells at 1 to 3 uM measured after 24 to 72 hrs by SYBR-green based qPCR analysis; type: functional, cell-based
[21] = system: Huh-7; test: Upregulation of p21 expression in human HuH7 cells expressing negative EpCAM/CD133 at 1 to 3 uM measured after 72 hrs by SYBR-green based qPCR analysis; type: functional, cell-based
[22] = system: Huh-7; test: Cytotoxicity against human HuH7 cells negative EpCAM/CD133 assessed as reduction in cell viability measured after 24 hrs by MTT assay; type: functional, cell-based; settings: Huh-7, 24 h
[23] = system: HepG2; test: Cytotoxicity against human HepG2 cells assessed as reduction in cell viability measured after 72 hrs by MTT assay; type: functional, cell-based; settings: HepG2, 72 h
[24] = system: Huh-7; test: Induction of apoptosis in human HuH7 cells expressing negative EpCAM/CD133 assessed as change in cell number at 0.1 to 10 uM measured after 48 hrs by 2D microscopic analysis; type: functional, cell-based
[25] = system: HepG2; test: Induction of apoptosis in human 3D HepG2 spheroids at 0.1 uM measured after 24 hrs by propidium iodide staining based immunofluorescence microscopy analysis; type: functional, cell-based
[26] = system: Huh-7; test: Cell cycle arrest in human HuH7 cells assessed as increase in cell accumulation at G2 phase at 10 uM measured after 48 hrs by propidium iodide staining based flow cytometry analysis; type: functional
[27] = biological target: T1, NAD-dependent protein deacetylase sirtuin-1 (Homo sapiens) (UniProt Q96EB6); test: Inhibition of human recombinant SIRT1 at 100 uM using FLUOR DE LYS SIRT1, deacetylase as substrate preincubated for 2 mins followed by substrate addition measured after 1 hr in presence of NAD+ by fluorescence assay relative to control
T1 sequence (whole entry): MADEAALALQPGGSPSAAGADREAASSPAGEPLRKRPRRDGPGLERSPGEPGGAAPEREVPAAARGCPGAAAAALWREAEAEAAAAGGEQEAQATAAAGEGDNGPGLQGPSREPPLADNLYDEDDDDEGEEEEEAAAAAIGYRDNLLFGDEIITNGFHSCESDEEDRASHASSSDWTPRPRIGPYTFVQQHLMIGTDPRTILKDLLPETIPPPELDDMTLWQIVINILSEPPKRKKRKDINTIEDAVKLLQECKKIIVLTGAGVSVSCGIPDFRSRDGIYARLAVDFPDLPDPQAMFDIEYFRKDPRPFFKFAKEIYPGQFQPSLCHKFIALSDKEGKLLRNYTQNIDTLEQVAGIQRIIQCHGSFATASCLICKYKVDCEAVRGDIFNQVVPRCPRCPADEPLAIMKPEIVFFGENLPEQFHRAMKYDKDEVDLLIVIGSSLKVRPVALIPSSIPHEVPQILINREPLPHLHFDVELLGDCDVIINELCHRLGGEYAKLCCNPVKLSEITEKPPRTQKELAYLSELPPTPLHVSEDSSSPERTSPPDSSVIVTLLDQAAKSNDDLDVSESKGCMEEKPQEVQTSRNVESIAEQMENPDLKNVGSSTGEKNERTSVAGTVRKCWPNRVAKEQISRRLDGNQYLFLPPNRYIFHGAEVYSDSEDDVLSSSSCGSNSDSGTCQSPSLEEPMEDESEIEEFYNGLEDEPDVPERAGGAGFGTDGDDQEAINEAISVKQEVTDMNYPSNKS

Cc1ccc([C@H]2CC=CC(=O)O2)c2ccccc12
Activity [1]: Active | inhibition [2]: 32 to 39% | Activity [3]: Dose-dependent effect | inhibition [4]: inactive | pIC50 [5]: 5.00 | Activity [6]: Active | inhibition [7]: Active | Activity [8]: Active | Activity [9]: Active | Activity [10]: Dose-dependent effect | Activity [11]: Active | inhibition [12]: Active | Activity [13]: Active | pIC50 [14]: 5.00 | Activity [15]: Dose-dependent effect | inhibition [16]: Active | Activity [17]: Active | inhibition [18]: Active | inhibition [19]: Active | Activity [20]: Active | Activity [21]: Active | pIC50 [22]: 5.00 | pIC50 [23]: 7.00 | Activity [24]: Active | Activity [25]: inactive | Activity [26]: Active | inhibition [27]: 50%
